A word on the inhibition: it is the percentage by which the read-out fell short of the control.

Here are results for two compounds from patent US20070254907A1, “COMPOSITIONS AND METHODS FOR CONTROLLING INFESTATION” (HATCHTECH PTY LTD, priority 2003, published 2007).

Where “and” joins values, the source holds several entries; their conditions need not be identical. Equal values may be shown once. Read-outs that look alike come from different tables or passages of the source.

The subject of one assay is lice eggs. In words: Standard lice egg-hatching assay, commercial head lice products with rinse. In kind it is in vivo. Conditions: for H (number of eggs successfully hatched) / Ph (number of eggs partly hatched): per replicate, products per manufacturer's recommendations, 1,10-phenanthroline 10 mM, rinsed. On the procedure:
(§1) These three products were tested according to manufacturer's recommendations. Groups of eggs (24 hours old) were treated with the different products according to manufacturer's recommendations for the appropriate period of time (5-10 minutes) followed by a rinse for 1-2 minutes in 32° C. water. A positive controls (10 mM 1,10-phenanthroline) and two negative controls (no treatment and 20% Methanol) were also incorporated. Post exposure to the different products, the eggs were rinsed with warm water at 32° C. before being blotted dry on tissue paper and placed at 32° C., 70% RH and left to hatch. A second group of eggs, (48 hours old) were treated as previously described and also left to hatch. This process was repeated at 24 hour intervals on head lice eggs up to 120 hours post laying. This method of assaying inhibitors more closely mirrors the field situation where lice eggs will be at various stages of development on the head and permits the inhibitory effects to be observed on these different stages of the parasite.
as §1, with “two” for “three”, “Two” for “A positive controls (10 mM 1,10-phenanthroline) and two”, “ethanol)” for “Methanol)”, “were” for “were rinsed with warm water at 32° C. before being”

A further assay deals with head lice egg. In words: Head lice egg hatching, time course. The class given is in vivo, Pediculus humanus capitus. The settings on record: 10 mM; for inhibition at 10000 µM: Pediculus humanus, 10 minutes, read-out: Percent inhibition of egg hatching relative to the control. The method, then: Tests were carried out to determine if metal chelating agent and metalloprotease inhibitor 1,10-phenanthroline could inhibit head lice egg (Pediculus humanus capitus) hatching as opposed to body lice. Head lice eggs were obtained by placing groups of both 1-2 adult male and 6-8 adult female head lice in separate wells in a 24 well petri dish containing cotton cloth. The petri dish was transferred to a humid incubator at 32° C., 70% RH for 12 hours to permit the female lice to lay their eggs. After 12 hours, all adult lice were removed from the petri dish wells and a series of time-course experiments conducted. A group of eggs (24 hr old) was treated for 10 minutes with 200 μL of a 10 mM solution of 1,10-phenanthroline. A control (ie no inhibitor treatment) group of eggs was also included. The eggs were removed from the inhibitor, blotted dry on tissue paper, placed at 32° C., 70% RH and left to hatch. A second group of eggs, (48 hours old) were treated as previously described and also left to hatch. This process was repeated at 24 hour intervals on head lice eggs up to 120 hours post laying. This method of assaying inhibitors more closely mirrors the field situation where lice eggs will be at various stages of development on the head and permits the inhibitory effects to be observed on these different stages of the parasite.

The next assay deals with head lice eggs. In words: Head lice egg hatching with formulated compound. The class given is in vivo. Conditions: 20 mM formulation. The method, then:
Gravid female lice were permitted to lay eggs. The eggs were counted, inspected under a light microscope and all eggs that appeared undamaged were allocated to one of two treatment groups. One group was exposed to 5′-dimethyl-2,2′-dipyridyl in a formulation, while the second group was exposed to the formulation only. The protocol was as follows:
Treatments: 5'-dimethyl-2,2'dipyridyl (20mM) n=10
Vehicle control only n=10
Exposure time: 10 minutes
Wash time: 1 minute @˜37° C.
Incubation: All eggs were placed at 31° C. in a humid incubator and monitored for signs of development specifically of the eye and subsequent hatching, see Table 21.

A further assay has as its system H. contortus eggs. The assay is described as follows: Egg hatching in Haemonchus contortus. In kind it is in vivo. The method, then: In an attempt to improve control of H. contortus the effects of the compound 5,5′-dimethyl-2,2′-dipyridyl was examined on H. contortus eggs. Eggs were recovered from the faeces of infected sheep using a standard sucrose floatation method. The eggs were corrected to a density of approximately 2,500 eggs per mL and were then exposed to varying concentrations of compound and incubated for 48 hours at 25° C. The eggs were then examined to determine the ovicidal efficacy of the compound in comparison to untreated control and a solvent only control.
In addition, the ovicidal efficacy of the compound 2-acetyl-1-tetralone was examined against H. contortus (FIG. 10). The same protocol was used as described for 5,5′-dimethyl-2,2′-dipyridyl.

With `c1cnc2c(c1)ccc1cccnc12` [1,10-phenanthroline, reference compound], in the assay on lice eggs (24-120 hr post egg laying), the “ovicidal activity across the different stages of lice egg hatching” value is reported as “highly effective at inhibiting lice egg hatching”. Also, the “H (number of eggs successfully hatched)” value in the assay on lice eggs (treated 24 hr post egg laying) was 0; with lice eggs (treated 48 hr post egg laying) it was 0; in the assay with lice eggs (treated 72 hr post egg laying) it was 0; in the assay on lice eggs (treated 96 hr post egg laying) it was 0; in the assay with lice eggs (treated 120 hr post egg laying) it was 0 and 4 and 1. For the same compound, the “Ph (number of eggs partly hatched)” value in the assay with lice eggs (treated 24 hr post egg laying), with lice eggs (treated 48 hr post egg laying), in the assay on lice eggs (treated 72 hr post egg laying), with lice eggs (treated 96 hr post egg laying) and with lice eggs (treated 120 hr post egg laying) was 0 in each case. Besides, the “inhibition of egg hatching in head lice” value in the assay with head lice egg was “significantly inhibit egg hatching in head lice”. Besides, the inhibition at 10000 µM came out at 100% with head lice egg (treated day 1 post laying); 87% in the assay with head lice egg (treated day 2 post laying); 88% with head lice egg (treated day 3 post laying); 100% in the assay on head lice egg (treated day 4 post laying); 100% in the assay on head lice egg (treated day 5 post laying).
Take `Cc1ccc(-c2ccc(C)cn2)nc1` [5,5′-dimethyl-2,2′-dipyridyl]: the “egg hatching in head lice” value in the assay with head lice eggs (10 minutes, 1 minute wash) is on record as “significantly suppress egg hatching”. Moreover, in the assay with head lice eggs (n=10 eggs), the “eggs that failed to hatch (did not develop)” value worked out at 80%. In addition, the “ovicidal efficacy on H. contortus eggs” value in the assay with H. contortus eggs (180 and 18 ug/mL (1 and 0.1 mM), 48 hours at 25° C. (FIG. 8)) is reported as “potently ovicidal”. In addition, the “effectiveness at inhibiting H. contortus egg hatching compared to ivermectin” value with H. contortus eggs (FIG. 8 versus FIG. 9) is reported as around 10 ×.
